Eleven molecules from PubChem BioAssay AID624167 (Sanford-Burnham Center for Chemical Genomics, 2012) can be followed below.

The term IC50 denotes the concentration that gives 50% inhibition.

Assay [1] is described as follows: inhibition of PEG-3 promoter-driven reporter – cell-based, HeLa, luciferase, CREF/GAPDH counter-screen panel, dose response (AID 624167). To be noted: CREF/GAPDH counter-screens; GAPDH; mean of runs.
For assay [2], the system named is PEG-3. The description is as above. As to conditions: HeLa PEG-Prom luciferase reporter, overnight, CREF/GAPDH counter-screens.
For another assay, the system named is GAPDH. The description is as above. As to conditions: CREF/GAPDH counter-screens.
In assay [3] the target is PEG-3 (UniProt Q6IN02). The description is as above. As to conditions: HeLa PEG-Prom luciferase reporter, overnight, CREF/GAPDH counter-screens, mean of runs. A general note: Reporter assays use an easily measured gene product as a stand-in for the process of interest.
Sequence of PEG-3 (UniProt Q6IN02) (Q6IN02 whole entry, looked up): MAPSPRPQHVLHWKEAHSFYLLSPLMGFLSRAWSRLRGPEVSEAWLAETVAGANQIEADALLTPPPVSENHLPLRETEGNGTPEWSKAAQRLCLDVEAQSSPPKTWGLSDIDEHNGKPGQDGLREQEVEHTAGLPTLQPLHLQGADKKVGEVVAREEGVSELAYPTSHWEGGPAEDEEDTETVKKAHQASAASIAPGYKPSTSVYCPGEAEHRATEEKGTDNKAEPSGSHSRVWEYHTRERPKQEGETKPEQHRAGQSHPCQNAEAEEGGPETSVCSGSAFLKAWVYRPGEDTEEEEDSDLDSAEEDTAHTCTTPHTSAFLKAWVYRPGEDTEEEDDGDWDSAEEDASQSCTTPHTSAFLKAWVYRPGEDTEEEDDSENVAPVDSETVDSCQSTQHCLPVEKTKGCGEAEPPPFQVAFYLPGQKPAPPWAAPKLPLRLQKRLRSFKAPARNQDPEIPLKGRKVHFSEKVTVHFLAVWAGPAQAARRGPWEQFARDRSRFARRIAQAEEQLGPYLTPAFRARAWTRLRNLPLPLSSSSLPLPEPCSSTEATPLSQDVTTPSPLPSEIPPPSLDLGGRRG
Another assay has as its system Rat fibroblasts (CREF). The description is as above. As to conditions: CREF/GAPDH counter-screens.
The mark [4] stands for this setting: run 1, dose range 1, individual replicate IC50 per panel.
The mark [5] stands for this setting: run 2, dose range 1, individual replicate IC50 per panel.

The source made the active and inactive calls.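 How the source made its calls: active means mean IC50 for reducing PEG3 promoter reporter signal at or below a set limit, with IC50 above the limit in both counter screens; inactive means the rest, including counter screen hits.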

Take `CCCC(=O)NC(c1ccc(Cl)cc1)c1ccc2cccnc2c1O` (centres undefined): the IC50 result in assay [1] was “inactive”. Further, the IC50 is 2.29 µM in the assay on PEG-3 [2] (setting [4]); 4.28 µM with PEG-3 [2] (setting [5]); 27.5 µM in the assay with GAPDH (setting [4]); 58.5 µM with GAPDH (setting [5]); 3.29 µM on PEG-3 [3]; > 100 µM (inactive) in the assay with Rat fibroblasts (CREF) (mean of runs). Moreover, the IC50 in the assay with Rat fibroblasts (CREF) (setting [4]) and in the assay on Rat fibroblasts (CREF) (setting [5]) was above 100 µM in each case.
As for `CC1=CC2C(C(O)CC3(C)C2CC(C)C32OCOC23COCO3)C2(C)C/C(=C\O)C(=O)C=C12` (centres undefined), the half-inhibitory concentration (IC50) in assay [1] is 9.16 µM; with PEG-3 [2] (setting [4]), 7.13 µM; with PEG-3 [2] (setting [5]), 5.01 µM; in the assay on GAPDH (setting [4]) it was 7.69 µM; with GAPDH (setting [5]), 10.6 µM; at PEG-3 [3], 6.07 µM. In addition, the IC50 is 8.5 µM in the assay with Rat fibroblasts (CREF) (mean of runs), 7.69 µM with Rat fibroblasts (CREF) (setting [4]) and 9.3 µM in the assay on Rat fibroblasts (CREF) (setting [5]).
With `CCc1ccc(/C=C2\SC(=S)N(CCCC(=O)Nc3ccccn3)C2=O)cc1`, the IC50 in assay [1] was 27.8 µM; in the assay on PEG-3 [2] (setting [4]) it was 5.21 µM; in the assay with PEG-3 [2] (setting [5]) it was 2.85 µM; in the assay with GAPDH (setting [4]), 15.6 µM; in the assay with GAPDH (setting [5]) it was 40.1 µM; at PEG-3 [3] it was 4.03 µM. Besides, the IC50 in the assay with Rat fibroblasts (CREF) (mean of runs) is 50.2 µM (inactive); with Rat fibroblasts (CREF) (setting [4]), above 100 µM; in the assay on Rat fibroblasts (CREF) (setting [5]), 0.313 µM.
Consider `CN(C)S(=O)(=O)c1ccc(-c2csc(N/N=C/c3ccc(O)cc3)n2)cc1`, for which the half-inhibitory concentration (IC50) is 12.1 µM in assay [1]; 8.68 µM in the assay on PEG-3 [2] (setting [4]); 7.77 µM in the assay on PEG-3 [2] (setting [5]); 11.7 µM with GAPDH (setting [4]); 12.5 µM in the assay on GAPDH (setting [5]); 8.22 µM at PEG-3 [3]. Further, the values for the IC50 with Rat fibroblasts (CREF) (mean of runs), in the assay on Rat fibroblasts (CREF) (setting [4]) and with Rat fibroblasts (CREF) (setting [5]) were 9.81 µM, 9.26 µM and 10.4 µM, respectively.
For `CCCC(=O)NC(c1ccc(C(C)C)cc1)c1ccc2cccnc2c1O` (centres undefined), in assay [1], the IC50 result was “inactive”. Further, the IC50 was 1.94 µM in the assay on PEG-3 [2] (setting [4]); 0.814 µM in the assay on PEG-3 [2] (setting [5]); 26.2 µM with GAPDH (setting [4]); 85.1 µM in the assay on GAPDH (setting [5]); 1.38 µM on PEG-3 [3]; > 100 µM (inactive) in the assay on Rat fibroblasts (CREF) (mean of runs). The IC50 with Rat fibroblasts (CREF) (setting [4]) and with Rat fibroblasts (CREF) (setting [5]) was above 100 µM in each case.
Turning to `Cc1ccc(OCC(=O)c2cc(C)n(Cc3ccco3)c2C)c([N+](=O)[O-])n1`, the concentration for half-maximal inhibition (IC50) was 13 µM in assay [1]; 6.5 µM in the assay on PEG-3 [2] (setting [4]); 7.13 µM in the assay on PEG-3 [2] (setting [5]); 7.31 µM with GAPDH (setting [4]); 18.7 µM in the assay with GAPDH (setting [5]); 6.81 µM at PEG-3 [3]. For the same molecule, the IC50 in the assay with Rat fibroblasts (CREF) (mean of runs) was > 100 µM (inactive); in the assay on Rat fibroblasts (CREF) (setting [4]), above 100 µM; with Rat fibroblasts (CREF) (setting [5]), above 100 µM.
`O=C(N/N=C/c1cc([N+](=O)[O-])ccc1O)c1ccc(COc2ccc3c(c2)CCC3)o1`: the IC50 in assay [1] is > 100 µM (inactive); with PEG-3 [2] (setting [4]) it was 7.48 µM; in the assay on PEG-3 [2] (setting [5]) it was 10.9 µM; with GAPDH (setting [4]), above 100 µM; with GAPDH (setting [5]) it was above 100 µM; at PEG-3 [3], 9.2 µM. The IC50 is 76.8 µM (inactive) in the assay on Rat fibroblasts (CREF) (mean of runs), above 100 µM in the assay with Rat fibroblasts (CREF) (setting [4]) and 53.7 µM in the assay on Rat fibroblasts (CREF) (setting [5]).
For `CN1OC[C@@H]2CN(S(=O)(=O)c3cccc(C(F)(F)F)c3)[C@H](c3ccc(-c4cc5ccccc5o4)cc3)C[C@@H]21`, the IC50 result in assay [1] was “inactive”. Further, the IC50 in the assay on PEG-3 [2] (setting [4]) is 18.7 µM; in the assay with PEG-3 [2] (setting [5]), 1.06 µM; in the assay on GAPDH (setting [4]), 44.3 µM; with GAPDH (setting [5]) it was 37.8 µM; at PEG-3 [3], 9.9 µM; in the assay with Rat fibroblasts (CREF) (mean of runs), > 100 µM (inactive). Besides, the IC50 with Rat fibroblasts (CREF) (setting [4]) and in the assay on Rat fibroblasts (CREF) (setting [5]) was above 100 µM each time.
In the case of `Clc1ccccc1/C=C/c1nc(-c2ccccn2)no1`, the IC50 was 1.86 µM in assay [1]; 3.68 µM with PEG-3 [2] (setting [4]); above 100 µM in the assay on PEG-3 [2] (setting [5]); 3.51 µM in the assay with GAPDH (setting [4]); below 0.2 µM with GAPDH (setting [5]); 28 µM with Rat fibroblasts (CREF) (mean of runs). Further, the IC50 is 25.7 µM in the assay with Rat fibroblasts (CREF) (setting [4]) and 30.3 µM with Rat fibroblasts (CREF) (setting [5]). The IC50 result on PEG-3 [3] was “inactive”.
For `O=c1cnnc(N/N=C/c2ccccn2)[nH]1`, the IC50 was > 100 µM (inactive) in assay [1]; 1.69 µM in the assay on PEG-3 [2] (setting [4]); 2.45 µM with PEG-3 [2] (setting [5]); above 100 µM in the assay on GAPDH (setting [4]); above 100 µM in the assay on GAPDH (setting [5]); 2.07 µM on PEG-3 [3]. For the same molecule, the IC50 in the assay with Rat fibroblasts (CREF) (mean of runs) is 67.1 µM (inactive); in the assay with Rat fibroblasts (CREF) (setting [4]), above 100 µM; in the assay on Rat fibroblasts (CREF) (setting [5]) it was 34.1 µM.
Consider `O=[N+]([O-])c1ccc(S(=O)(=O)c2ccccc2)nc1`, for which, in assay [1], the IC50 result is “inactive”. For the same molecule, the IC50 in the assay with PEG-3 [2] (setting [4]) was 9.44 µM; with PEG-3 [2] (setting [5]), 8.56 µM; with GAPDH (setting [4]) it was 33.8 µM; with GAPDH (setting [5]), 29.1 µM; on PEG-3 [3] it was 9 µM; with Rat fibroblasts (CREF) (mean of runs), 54.4 µM (inactive). Moreover, the IC50 in the assay on Rat fibroblasts (CREF) (setting [4]) was 8.84 µM; in the assay with Rat fibroblasts (CREF) (setting [5]), above 100 µM.
